Experiment: Human HepG2 cell viability assay in 384 well format
Format: toxicity, cell-based
Parameters: dose 125 nL, time 70.5 hour; cytotoxicity at 70.5 h: concentration not given beside the values
Settings: HepG2 cells, read-out: Inhibition

Row | SMILES | cytotoxicity at 70.5 h [%]
1 | CCn1ncc2c1CCCC2NCc1cc(OC)cc(OC)c1 (centres undefined) | -9.39
2 | Cc1cnn(CC2CN(CCCS(=O)(=O)N(C)C)CCO2)c1 (centres undefined) | -10.7
3 | O=C(Cn1ccnc1)N1CCCC(OCc2cccnc2)C1 (centres undefined) | 29.5
4 | CN(C)c1nccc(NC(=O)c2ccncc2)n1 | -7.12
5 | Cc1cccc(-n2ncc3c2CCCC3NCc2cnn(C)c2C)c1C (centres undefined) | 3.5
6 | Cn1ccc(C(=O)NC2CCC23CCN(CC2CCOCC2)CC3)c1 (centres undefined) | 3.91
7 | CN1CCC(NN2CCN(C)CC2)CC1 | -17.5
8 | CCc1nc(CN2CCCC(Nc3ncnc4ccsc34)C2)no1 (centres undefined) | -8.27
9 | CCOC(=O)[C@]12CCCN(Cc3cccs3)C[C@H]1CN(CC(C)C)C2 | -2.32
10 | CN(Cc1cc(C2CC2)[nH]n1)C(=O)c1ccccc1C1CCNC1 (centres undefined) | -3.91
11 | O=C(NCc1ccccc1)[C@H]1C[C@@H]2CN(C(=O)NC3CCCC3)C[C@H]1O2 | 16.8
12 | N#CCCN(CCC#N)C(=O)CN(C1CC1)C1CCc2ccccc21 (centres undefined) | -2.92
13 | Cc1noc(C)c1CN1CC[C@@H]2O[C@@H](COCC(C)C)CC[C@@H]21 | 3.11
14 | Cn1cnnc1SCC(=O)N1C[C@H]2CC[C@@H]1CN(Cc1cccnc1)C2 | -3.64
15 | CCSc1ccc(C(=O)N2CC[C@](O)(CC)[C@H](O)C2)s1 | 22.5
16 | CC(=O)NCC1CCN(CC2CCOc3ccccc3C2)CC1 (centres undefined) | -4.25
17 | O=C(N1CCOCC1)N1CCc2ncnc(NC3CC3)c2CC1 | 21
18 | CCN(CC)c1ccc(CNS(=O)(=O)C2CCOCC2)cc1F | -10.6
19 | NC(=O)CC1CC2(CCNCC2)c2cc(F)ccc21 (centres undefined) | -7.94
20 | Cc1cc(C)n(-c2cncc(NCCNS(C)(=O)=O)n2)n1 | 2.9
21 | Cc1ncsc1C(=O)N1CCC(O)(Cn2c(C)cc3ccncc32)CC1 | -0.305
22 | CN(Cc1ccon1)C(=O)CN1C(=O)OC(C)(C)C1=O | -11.5
23 | CN(C)CC(=O)Nc1ccc(C(=O)N(C)CCc2cn[nH]c2)cc1 | -1.37

Row | SMILES | cytotoxicity at 70.5 h [%]
24 | Cc1cc(N(C)C)nc(C2COCCN2Cc2nccn2C)n1 (centres undefined) | -6.31
25 | Cc1cnc(-c2nc(O)c3c(n2)CN(C(=O)CC2CCCC2)CC3)cn1 | -2.15
26 | CC(C)c1cc(N2CCC3(CC2)CN(C)CCN3C)ncn1 | -4.93
27 | COCCN1CCC2(CC1)CN(C(=O)C1CC1)c1ccc(F)cc12 | -3.73
28 | CC(C)Cc1cc(NC(=O)c2ccc[nH]2)n(C)n1 | -11.1
29 | COc1ccc(Cl)c(NCC(=O)NCC(=O)N2CCCC2)c1 | -18.4
30 | O=C1CN(CCS(=O)(=O)c2ccc(Cl)cc2)CCN1 | -11.9
31 | CN(C)CC(C)(C)Cn1cnc(-c2ccccc2)c1-c1cccc(O)c1 | -10.8
32 | COCc1cccc(S(=O)(=O)N2CCSCC2)c1 | 14
33 | COc1cc(NC(=O)N(C)Cc2ccc(Br)o2)ncn1 | -8.49
34 | Cc1nc(C)n(CC2CCCN2Cc2nc3ccccc3nc2C)n1 (centres undefined) | 3.65
35 | CCC1CN(C)c2ccccc2CN1C(=O)Nc1ccccc1OC (centres undefined) | 16.8
36 | CC(C)(C)C(=O)NCCC(=O)NS(=O)(=O)c1cccnc1 | 9.3
37 | CCc1nc(CN2CCCN(c3ncnc4ccccc34)CC2)no1 | 40.8
38 | COc1ccccc1C1CNCCN1C(=O)c1ccc(F)cc1 (centres undefined) | 0.353
39 | Fc1cccc(CN2CCC(c3noc(-c4ccncc4)n3)CC2)c1F | 2.58
40 | O=C(c1cc2c([nH]c1=O)CCC2)N1CCCC1c1ccc(F)cc1 (centres undefined) | -3.95
41 | Cc1ncsc1CN1CC[C@H]2OCC[C@@]2(C(=O)N(C)C)C1 | -3.45
42 | CCCn1ncc(C(=O)N2CCN([C@H]3CCCC[C@@H]3O)CC2)c1C | -0.657
43 | COC(C)(C)C(=O)N[C@H]1CN(c2ncccc2C(N)=O)C[C@@H]1C(C)C | 0.335
44 | Cc1cccc(C(=O)NCc2ccc(N3CCCCCC3)nc2)n1 | -6.26
45 | O=C1CC(c2cccnc2)C2(CCN(C(=O)c3ccncc3)CC2)N1 (centres undefined) | -1.04
46 | CC(=O)c1cnc(NCC2OCCc3ccccc32)nc1C (centres undefined) | -9.22

Row | SMILES | cytotoxicity at 70.5 h [%]
47 | CC(NC(=O)Cn1cccnc1=O)c1ccc(C(F)(F)F)cc1 (centres undefined) | 12
48 | Cc1cnn(CCNCc2c(C(C)C)nn(C)c2Cl)c1 | -2.72
49 | CCCN1CCc2nc(SCc3ccc(F)cc3)[nH]c(=O)c2C1 | -3.74
50 | CCn1nc(C)c2nc(C(C)C)nc(NCC(=O)N3CCOCC3)c21 | 5.24
51 | Cc1ccc(-c2ncc(C(=O)N3CCCN4CCC[C@H]4C3)c(O)n2)cc1 | 5.02
52 | CCOc1ccc(Cl)cc1C(C(=O)O)N1CCC(CO)CC1 (centres undefined) | 0.285
53 | CCOC(=O)CNC(=O)N1CCOC(Cc2ccc(OC)cc2)C1 (centres undefined) | -0.738
54 | CCN(CC)c1ncc(Cl)c(C(=O)NC2CC2)n1 | -0.0542
55 | NC(=O)NC(=O)CCN1CCCC1c1cccc2c1OCCO2 (centres undefined) | -11.6
56 | Cn1ccnc1SCCNc1cc(N2CCOCC2)ncn1 | -19.6
57 | Cc1ccc(-c2nc(CN(C)C3CCS(=O)(=O)C3)cs2)o1 (centres undefined) | -8.59
58 | CC(c1ccncc1)N(CCN(C)C)C(=O)Nc1ccc(Cl)c(Cl)c1 (centres undefined) | -11.5
59 | CC1N(CC2CC2)C(=O)COC12CCN(Cc1nccs1)CC2 (centres undefined) | -8.15
60 | CCN(CC)CCCNc1nccc(-c2cn(C)nc2C)n1 | -3.41
61 | CN(Cc1ccc(F)cc1)Cc1nc(-c2cnccn2)no1 | -7.07
62 | CCN(CC)C(=O)Cn1nc(C(C)C)c2cnn(C(C)(C)C)c2c1=O | 13.7
63 | O=C1CCN(C(=O)C2(c3ccc(F)cc3)CCCC2)CCN1 | -5.37
64 | COCCN1CCC(NC(=O)NCC2(c3cccc(F)c3)CC2)C1 (centres undefined) | -8.45
65 | CN(Cc1ccsc1)C(=O)c1cccc(S(=O)(=O)NCC2CCCO2)c1 (centres undefined) | 15.1
66 | CCc1ccccc1OCCN(C)C(=O)CCN1CCCCO1 | -7.24
67 | O=C(CCc1ccc(-n2cnnn2)cc1)Nc1nncs1 | -8.9
68 | Cc1ccn(-c2ccc(C(=O)N3CCCC(C(N)=O)C3)cc2)n1 (centres undefined) | -9.79
69 | Cn1cc(CC2CC(=O)N(Cc3ccccc3OC(F)F)C2=O)cn1 (centres undefined) | -0.223

Row | SMILES | cytotoxicity at 70.5 h [%]
70 | CCc1nc(CN2CCCN(C(=O)C(CC)OC)CC2)cs1 (centres undefined) | 6.03
71 | Cc1cccc(-c2noc(CNC(C)Cn3cc(C)cn3)n2)c1 (centres undefined) | -0.846
72 | CN(Cc1nc(Cc2ccccc2F)no1)CC1Cc2ccccc2O1 (centres undefined) | 8.45
73 | Cc1nc(CN(C)C2CCN(CCc3cnn(C)c3)C2)no1 (centres undefined) | 18.2
74 | CCN(CC)CCn1cc(NC(=O)c2ccccc2OC)cn1 | -12.2
75 | COc1cccc(S(=O)(=O)CCN2CCn3c(C)nnc3C2)c1 | 1.41
76 | CS(=O)(=O)NCc1cc(-c2cc(F)cc(F)c2)nc(N2CC[C@H](O)C2)n1 | -10.5
77 | c1ccc(CNC2CCc3ncnn3C2)nc1 (centres undefined) | 6.6
78 | c1ncn(CC2CN(CCCOc3ccc4c(c3)OCO4)CCO2)n1 (centres undefined) | -4.94
79 | COCCN1C(=O)CC(N2CCN(c3ccccc3)CC2)C1=O (centres undefined) | -3.99
80 | CCC(=O)N1CCC(Cc2ccccc2-c2ccncc2)(C(=O)NC)C1 (centres undefined) | -7.46
81 | COc1ccc(C(C)NCc2cscn2)cc1Cn1cccn1 (centres undefined) | -7.35
82 | O=C(Nc1cccnc1)c1ccc(-n2cncn2)nn1 | 13.8
83 | c1ccc(-n2cc(CN3CCCCC3Cn3cncn3)nn2)cc1 (centres undefined) | -0.323
84 | CC(C)N1CCO[C@H]2CN(C(=O)c3ccoc3)C[C@H]21 | -4.51
85 | Nc1nc(CCCNC(=O)c2ccc(C3CCCNC3)cc2)cs1 (centres undefined) | -7.45
86 | CC(C)c1ccc(OCCNC(=O)N2CCS(=O)(=O)CC2)cc1 | -2.35
87 | Cc1c(CS(C)(=O)=O)cccc1NCC1CCCCC1 | 7.16
88 | CCC1c2ccc(C)n2CCN1C(=O)Cn1cnc2sc(C)cc2c1=O (centres undefined) | -5.17
89 | O=C(NCCN1CCCC1)c1cc2c(s1)CCN2C(=O)c1ccccc1 | -8.31
90 | Cc1cnc(N2C[C@H]3C[C@H](C(=O)N4CCN(C)CC4)N(C)[C@H]3C2)nc1 | -9.1
91 | CC(C)n1ccnc1C1CCN(Cc2ccc(Cl)s2)CC1 | -8.66
92 | CCCS(=O)(=O)N1CCC2(CN(c3ccsc3)C(=O)CN2C)C1 (centres undefined) | -3.38

Row | SMILES | cytotoxicity at 70.5 h [%]
93 | CCOc1ccc(Cl)c(C(=O)N2CCN(c3cnccn3)CC2)n1 | 38.9
94 | O=C(c1nc(Cc2c[nH]c3ccccc23)no1)N1CCOCC1 | -3.8
95 | CCn1cc2c(n1)C(COCC1CC1)CN(C(=O)c1ccsc1)C2 (centres undefined) | -10.1
96 | CC(C)Cc1nc(NC(=O)c2cc(-c3cccnc3)n[nH]2)n[nH]1 | -5.07
97 | COCC(C)NC(=O)c1cn(C(C)C)cc2c(=O)[nH]nc1-2 (centres undefined) | -6.59
98 | Cc1ncsc1-c1nc(-c2cccc(CN3CCOCC3)c2)no1 | -6.25
99 | CCCc1cc(NCc2ccc(CO)cc2)n2nccc2n1 | 1.98
100 | Cc1ccc(CNC(=O)CN2CCCC(Cn3cncn3)C2)cc1 (centres undefined) | -2.99
101 | COCCN1CCn2cc(CNC(=O)c3cnn(C)c3)nc2C1 | -38
102 | Cc1noc(C)c1CN(C)C(=O)COc1cccc(C#N)c1 | -10.8
103 | Cc1cc(NC(=O)CCN2CCCC2Cn2cccn2)no1 (centres undefined) | -6.26
104 | Cc1ncc(C)c(N2CCCC(CO)(Cc3cccc(Cl)c3)C2)n1 (centres undefined) | 1.75
105 | CCCc1ccc(CN2CCN(C(=O)CC(C)C)[C@@H]3CS(=O)(=O)C[C@@H]32)o1 | -9.85
106 | NC(=O)NC1CCN(Cc2ccccc2OCC(F)(F)F)CC1 | -4.28
107 | NC(=O)CN1CCC(C(=O)NCc2ccc3c(c2)OCCCO3)CC1 | -8.05
108 | OCc1ccc(OCC(F)(F)F)cc1 | -8.76
109 | Cn1nc2c(cc1=O)CN(CC(=O)Nc1nccs1)CC2 | -3.23
110 | O=C1NCCN2CCN(Cc3ccc(Cl)c(Cl)c3)CC12 (centres undefined) | -8.1
111 | Cc1nc2cc(-c3nccn3C)nn2c(N2CCC(O)CC2)c1C | -3.32
112 | Cc1cnn(C2(C(=O)O)CCN(c3ccncc3F)CC2)c1 | -5.87
113 | O=C1CCCCN1CCc1nc(-c2cccnn2)no1 | -2.5
114 | Cc1nnsc1CN(C)Cc1ccc(C(=O)Nc2sccc2C#N)cc1 | -3.25
